Data published in US8309319B2, “Fluorescent probe for measurement of UDP-glucuronosyltransferase” (The University of Tokyo, priority 2007, dated 2012).

What was measured:
UGT1A1 [1] = target: T1, UGT1A1 (Homo sapiens, UniProt P22309); test: Reactivity of fluorescence increasing (d-PeT) type probes with UGT1A1; format: biochemical; parameters: host or cells: microsomes expressing UGT1A1; conditions: FIG. 4
T1 sequence (P22309 26-533): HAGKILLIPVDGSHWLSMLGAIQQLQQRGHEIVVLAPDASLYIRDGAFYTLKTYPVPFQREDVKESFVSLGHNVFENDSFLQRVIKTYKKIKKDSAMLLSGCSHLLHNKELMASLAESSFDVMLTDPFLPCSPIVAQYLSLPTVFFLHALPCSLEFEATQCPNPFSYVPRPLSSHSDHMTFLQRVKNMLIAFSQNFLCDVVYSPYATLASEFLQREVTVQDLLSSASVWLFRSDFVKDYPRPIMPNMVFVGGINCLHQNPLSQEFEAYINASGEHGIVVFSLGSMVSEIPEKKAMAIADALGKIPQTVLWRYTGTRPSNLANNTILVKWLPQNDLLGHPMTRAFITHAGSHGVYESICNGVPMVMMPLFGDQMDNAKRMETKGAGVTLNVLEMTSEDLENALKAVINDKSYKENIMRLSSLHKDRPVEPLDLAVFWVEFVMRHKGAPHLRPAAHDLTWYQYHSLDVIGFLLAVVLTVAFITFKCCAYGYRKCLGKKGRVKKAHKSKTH
Procedure: The fluorescein derivatives of fluorescence decreasing type, of which fluorescence is decreased by a reaction with UGT, were obtained in Examples 1 and 2. Further researches were conducted in order to provide fluorescein derivatives of fluorescence increasing type of which fluorescence is increased by a reaction with UGT. Functionally, the structure of fluorescein can be recognized as two parts having different functions, i.e. the benzene ring moiety and the xanthene ring moiety. By appropriately choosing substituents on the benzene ring moiety among them, fluorescence thereof can be controlled by using PeT (J. Am. Chem. Soc., 123, pp. 2530-2536, 2001). […] Therefore, it is considered that there can be developed a fluorescence increasing type fluorescein derivative of which fluorescence is quenched by PeT before the reaction with UGT when the fluorescein derivative is a phenolate type, and fluorescence is emitted after the reaction with UGT when the fluorescein derivative is an O-glycoside type, by appropriately choosing the substituents on the benzene ring moiety (J. Am. Chem. Soc., 126, pp. 14079-14085, 2004). From such a point of view, 6-carboxyfluorescein dimethyl ester and 5,6-dicarboxyfluorescein trimethyl ester were designed as fluorescence increasing (d-PeT) type fluorescein derivatives, and reactivity thereof with UGT1A1 was confirmed.

UGT1A1 [2] = target: T1, UGT1A1; test: Reactivity with UGT1A1, fluorescence method (decrease in fluorescence intensity); conditions: 37° C.
UGT1A1 [3] = target: T1, UGT1A1; test: Reactivity with UGT1A1, absorbance method (decrease of absorbance); format: biochemical; parameters: host or cells: microsomes expressing UGT1A1; conditions: probe 10 μM, absorbance at 480 to 510 nm; compared with 2-Me-4-OMe-TG
[4] = probe 1 μM, excitation 480 to 510 nm

COC(=O)c1cc(C(=O)OC)c(-c2c3ccc(=O)cc-3oc3cc(O)ccc23)cc1C(=O)OC [5,6-dicarboxyfluorescein trimethyl ester]
change of fluorescence intensity with passage of the reaction time (UGT1A1 [1]): increase of fluorescence intensity was observed

COC(=O)c1ccc(C(=O)OC)c(-c2c3ccc(=O)cc-3oc3cc(O)ccc23)c1 [6-carboxyfluorescein dimethyl ester]
change of fluorescence intensity with passage of the reaction time (UGT1A1 [1]): increase of fluorescence intensity was observed

Nc1ccccc1-c1c2ccc(=O)cc-2oc2cc(O)ccc12 [Derivative 6]
reactivity with UGT1A1 (UGT1A1 [2]; UGT1A1 microsomes 0.1 mg/mL, UDP-glucuronic acid 2 mM, probe 1 μM (fluorescence) or 10 μM (absorbance)): weak

COc1ccc(-c2c3ccc(=O)cc-3oc3cc(O)ccc23)c(C)c1 [Derivative 11]
decrease of fluorescence intensity to (UGT1A1 [2]; [4]): ≤ 0.1%
decrease rate of fluorescence (UGT1A1 [2]; [4]): high decrease rate of fluorescence

Cc1ccc(-c2c3ccc(=O)cc-3oc3cc(O)ccc23)c([N+](=O)[O-])c1 [Derivative 15]
decrease rate of absorbance (UGT1A1 [3]): higher decrease rate of absorbance
